This note sets out measurements from patent publication US20090137499A1, “BENZYLPHENYL GLUCOPYRANOSIDE DERIVATIVE” (priority 2006, published 2009).

The target of the assay is T1, human SGLT2 (Homo sapiens, UniProt P31639).
T1 construct: expressed in transfected cells
T1 sequence (P31639 1-672): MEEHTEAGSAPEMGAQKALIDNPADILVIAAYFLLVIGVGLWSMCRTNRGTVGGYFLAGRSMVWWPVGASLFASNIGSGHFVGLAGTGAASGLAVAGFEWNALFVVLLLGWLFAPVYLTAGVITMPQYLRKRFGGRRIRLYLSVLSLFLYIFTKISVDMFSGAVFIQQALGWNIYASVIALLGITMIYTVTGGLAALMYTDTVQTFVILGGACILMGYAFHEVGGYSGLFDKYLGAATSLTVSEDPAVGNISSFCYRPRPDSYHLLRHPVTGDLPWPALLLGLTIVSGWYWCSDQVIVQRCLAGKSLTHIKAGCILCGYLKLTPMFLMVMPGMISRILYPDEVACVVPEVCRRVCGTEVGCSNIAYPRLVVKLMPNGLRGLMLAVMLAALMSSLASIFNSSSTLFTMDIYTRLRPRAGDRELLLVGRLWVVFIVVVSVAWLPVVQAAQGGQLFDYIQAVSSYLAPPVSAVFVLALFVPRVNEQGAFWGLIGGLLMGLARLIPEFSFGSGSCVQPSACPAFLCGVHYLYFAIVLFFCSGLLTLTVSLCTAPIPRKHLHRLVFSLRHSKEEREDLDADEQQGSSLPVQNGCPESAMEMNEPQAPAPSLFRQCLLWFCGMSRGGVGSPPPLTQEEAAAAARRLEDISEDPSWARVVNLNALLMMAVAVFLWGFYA
The experiment in a line: Determination of SGLT2 inhibiting activity using human SGLT2 expressing cell ([14C]-α-methyl-D-glucopyranoside uptake). The class given is cell-based. As to conditions: HEK-SGLT2 cells, 1 mM [14C]-α-methyl-D-glucopyranoside, 37° C., 30 min. How it is done: Determination of SGLT2 Inhibiting Activity Using Human SGLT2 Expressing Cell
1) Preparation of Vector Expressing Human SGLT2 cDNA in Animal Cell
Amplification was performed by PCR using human SGLT2 cDNA clone (Origene: Clone Number, TC303267; GenBank accession number, NM 003041) as a template. The sense oligonucleotide primer for PCR was 5′-[…]-3′ (Primer 3: SEQ ID NO: 3 in the sequence listing),
and the antisense oligonucleotide primer was 5′-[…]-3′ (Primer 4: SEQ ID NO: 4 in the sequence listing). The PCR product was subjected to agarose electrophoresis, then a target DNA fragment was recovered from a single band corresponding to 2037 bases, digested with restriction enzymes HindIII and XhoI, and introduced into the HindIII/XhoI site of vector pCMV-Script (Stratagene) to obtain SGLT2 expressing plasmid pCMV-SGLT2. A HindIII/XhoI fragment was excised from pCMV-SGLT2 and introduced into the BamHI/XhoI site of pENTR1A (Gateway, Invitrogen) to prepare pENTR-SGLT2. Retrovirus vector pLPCX (Clontech) into which Gateway Vector Conversion System Cassette A (Invitrogen) was introduced was used as the destination plasmid to prepare SGLT2 expressing retrovirus vector pLPCX-SGLT2.
2) Establishment of Human SGLT2 Expressing Cell
The retrovirus pLPCX-SGLT2 obtained in 1) was transfected into integrin αvβ3 expressing HEK-293 cells, the cells were treated with antibiotic G418 (brand name, Geneticin: Invitrogen) and puromycin (Clontech) to obtain HEK-SGLT2 cells stably expressing the target vector having resistance. The stably expressing cells were cultured and maintained in DMEM medium containing […] G418, […] puromycin, 3 mM KGT-1075, and 10% FBS.
3) Determination of SGLT2 Inhibiting Activity
HEK-SGLT2 cells were suspended at a density of 10^6 cells/mL in DMEM medium containing 250 mg/mil G418, 1 mg/ml puromycin, and 10% FBS, and 100 μL was seeded in each well of a type 1 collagen-coated 96-well culture plate (Corning). On the following day, the medium was replaced with a sugar uptake buffer (10 mM HEPES [pH 7.5], 5 mM Tris-HCl [pH 7.5], 140 mM NaCl, 2 mM KCl, 1 mM CaCl2, 1 mM MgCl2), and the cells were cultured with 1 mM [^14C]-α-methyl-D-glucopyranoside (0.1 mCi) and a test compound at 37° C. for 30 min, and then washed 3 times with a washing buffer (10 mM HEPES (pH 7.5), 5 mM Tris-HCl (pH 7.5), 140 mM choline chloride, 2 mM KCl, 1 mM CaCl2, 1 mM MgCl2). 100 μL of liquid scintillation cocktail (brand name, Supermix: Perkin-Elmer) was added to each well of the 96-well plate and stirred for 10 min, and then radioactivity was determined with micro β (Perkin-Elmer), a type of liquid scintillation counter. The value obtained by deducting the radioactivity in the presence of an excess amount of an SGLT2 inhibiting compound as the background from each measured value was taken as the sugar uptake activity, the inhibition rate (%) was calculated from the control sugar uptake activity obtained without using a test compound and the sugar uptake activity obtained using a test compound having a predetermined concentration, and the concentrations of the test compound at which the sugar uptake activity was inhibited by 50% were assessed.

As a reminder, the IC50 is the concentration at which inhibition is half-maximal. Higher therefore signals weaker potency. In the case of `COc1ccc(Cc2c(Cl)cc(CO)cc2O[C@@H]2O[C@](C)(CO)[C@@H](O)[C@H](O)[C@H]2O)cc1` [Example 55, 3-Chloro-5-hydroxymethyl-2-(4-methoxybenzyl)phenyl 5-C-methyl-β-D-glucopyranoside], half-maximal inhibition (IC50) required 0.01 µM.
The molecule `COc1ccc(Cc2c(Cl)cc(CO)cc2O[C@@H]2O[C@H](CO)[C@@](C)(O)[C@H](O)[C@H]2O)cc1` [Example 56, 3-Chloro-5-hydroxymethyl-2-(4-methoxybenzyl)phenyl 4-C-methyl-β-D-glucopyranoside] returned an IC50 of 0.011 µM.
As for `COc1ccc(Cc2ccc(N)cc2O[C@@H]2O[C@H](CO)[C@@](C)(O)[C@H](O)[C@H]2O)cc1` [Example 64, 5-Amino-2-(4-methoxybenzyl)phenyl 4-C-methyl-β-D-glucopyranoside], the figure is 0.013 µM.
To `COc1ccc(Cc2ccc(N)cc2O[C@@H]2O[C@H](CO)C[C@H](O)[C@H]2O)cc1` [Example 65, 5-Amino-2-(4-methoxybenzyl)phenyl 4-deoxy-β-D-glucopyranoside] belongs 0.02 µM; to `COc1ccc(Cc2c(F)cc(CO)cc2O[C@@H]2O[C@H](CO)C[C@H](O)[C@H]2O)cc1` [Example 85, 3-Fluoro-5-hydroxymethyl-2-(4-methoxybenzyl)phenyl 4-deoxy-β-D-glucopyranoside], 0.02 µM; to `COc1ccc(Cc2c(Cl)cc(CO)cc2O[C@@H]2O[C@H](CO)C[C@H](O)[C@H]2O)cc1` [Example 86, 3-Chloro-5-hydroxymethyl-2-(4-methoxybenzyl)phenyl 4-deoxy-β-D-glucopyranoside], 0.019 µM.
`CCOc1ccc(Cc2ccc(COC(=O)CO)cc2O[C@@H]2O[C@H]([C@@H](C)O)[C@@H](O)[C@H](O)[C@H]2O)cc1` [Example 99, 5-Hydroxyacetyloxymethyl-2-(4-ethoxybenzyl)phenyl 7-deoxy-D-glycero-β-D-gluco-heptopyranoside]: the IC50 came out at 0.272 µM.
